Test results taken from paper PMC5618429, “Kempopeptin C, a Novel Marine-Derived Serine Protease Inhibitor Targeting Invasive Breast Cancer” (Marine Drugs, 2017).

Tests used:
[1] = biological target: T1, plasmin from human plasma (Homo sapiens, UniProt P00747); test: Plasmin inhibition assay; format: biochemical; settings: mean ± SD, n = 3; 30-min preincubation; read-out: IC50 against plasmin
T1 construct: purchased Sigma P1867; host or cells: human plasma
Procedure: The plasmin inhibition assay was carried out by incubating 5 µL of […] plasmin from human plasma (P1867, Sigma, St. Louis, MO, USA) with 1 µL of different concentrations of inhibitors (2 and 3; half log dilutions prepared in DMSO) or the solvent control in the presence of 89 µL assay buffer (0.05 M Tris-HCl, pH 8.9). After a 30-min incubation time, 5 µL of 1.7 mM substrate solution (N-p-Tosyl-D-Gly-Pro-Lys-4-nitroanilide acetate salt; prepared in assay buffer) were added to each well. The reaction was monitored by measuring the absorbance at 405 nm every 30 s for 30 min using the SpectraMax M5 plate reader (Molecular Devices).

[2] = test system: CDCP1 cleavage in MDA-MB-231 cells; test: Cleavage of CDCP1 in MDA-MB-231 cells (Western blot); format: cell-based
Procedure: The experiment was performed by treating MDA-MB-231 cells with different concentrations of either kempopeptin B (2) or C (3) for 72 h (Figure 6A). Dexamethasone (Dex) 100 nM was used as a positive control.
Figure 6 The effect of kempopeptins B and C (2 and 3) on CDCP1 cleavage in MDA-MB-231. (A) MDA-MB-231 cells were treated for 72 h with different concentrations of the test compounds. Following 72 h, the lysates were collected and analyzed by Western blot. (B) MDA-MB-231 cells were treated at different time points with 100 µM of kempopeptin C (3). Following 6 h, 12 h and 24 h, the lysates were collected and analyzed by Western blot. Dexamethasone (Dex) was used as a positive control. (C) MDA-MB-231 cells treated for 24 h with different concentrations of 3 in the presence of 10 nM recombinant human matriptase. Cell lysates were harvested and analyzed by Western blot. (D) Densitometric analysis of the full-length, LMW of CDCP1 and actin bands in (C).
MDA-MB-231 cells (150,000 cells/well) were seeded in 12-well plates. After 24 h, the media were replaced, and cells were treated with different concentrations of inhibitors (2 or 3; prepared in DMSO), the solvent control or the positive control dexamethasone. Whole-cell protein lysates were collected after 6, 12, 24 and 72 h using PhosphoSafe lysis buffer (Novagen, Madison, USA) and the protein concentration measured using the BCA Protein Assay kit (Pierce; 23227; Thermofisher Scientific; Waltham, MA, USA). Twenty micrograms of protein were separated by SDS-PAGE, transferred to polyvinylidene difluoride (PVDF) membranes, probed with CDCP1 antibody (Cell Signaling; 4115S) and detected with SuperSignal West Femto Maximum Sensitivity Substrate (Pierce).

[3] = biological target: T2, 20S proteasome (trypsin-like activity) (Homo sapiens, UniProt Q99436); test: Proteasome Glo Trypsin-Like Activity Assay; format: biochemical; settings: 10 and 1 µM, in vitro
T2 construct: purchased Enzo Life Sciences
Procedure: The inhibition of proteasomes was assessed using the Proteasome Glo Trypsin-Like Activity Assay from Promega according to the manufacturer’s instructions. Briefly, in white 96-well plates, kempopeptin C (3) (10 and 1 µM final concentration) was incubated at room temperature with 0.1 µg 20S proteasome (Enzo Life Sciences, Farmingdale, NY, USA) for 10 min to allow enzyme inhibitor interactions. Following the incubation period, the detection reagent containing Z-LRR-aminoluciferin substrate was added. The plate was gently mixed at 400 rpm for 30 s and then incubated at room temperature for 10 min. The luminescence signal was then measured using the EnVision plate reader (PerkinElmer, Waltham, MA, USA). Epoxomicin was used as a positive control.
Effect of kempopeptin C on the trypsin- like activity of
Kempopeptin C (10 µM) Kempopeptin C (1 µM) Epoxomicin (5 µM)
Figure S2. Effect of kempopeptin C (3) on the proteasome activity in vitro assessed using proteasome Glo trypsin- like
activity assay (Promega).

T1 sequence (P00747 581-810 limits assumed): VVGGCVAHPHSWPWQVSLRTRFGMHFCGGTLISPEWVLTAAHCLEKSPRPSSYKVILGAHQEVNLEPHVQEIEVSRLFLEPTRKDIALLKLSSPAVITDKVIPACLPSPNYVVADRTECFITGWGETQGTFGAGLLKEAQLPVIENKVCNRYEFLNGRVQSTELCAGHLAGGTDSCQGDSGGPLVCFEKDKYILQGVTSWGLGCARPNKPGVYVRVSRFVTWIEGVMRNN
T1 sequence (P00747 98-580 partner limits assumed): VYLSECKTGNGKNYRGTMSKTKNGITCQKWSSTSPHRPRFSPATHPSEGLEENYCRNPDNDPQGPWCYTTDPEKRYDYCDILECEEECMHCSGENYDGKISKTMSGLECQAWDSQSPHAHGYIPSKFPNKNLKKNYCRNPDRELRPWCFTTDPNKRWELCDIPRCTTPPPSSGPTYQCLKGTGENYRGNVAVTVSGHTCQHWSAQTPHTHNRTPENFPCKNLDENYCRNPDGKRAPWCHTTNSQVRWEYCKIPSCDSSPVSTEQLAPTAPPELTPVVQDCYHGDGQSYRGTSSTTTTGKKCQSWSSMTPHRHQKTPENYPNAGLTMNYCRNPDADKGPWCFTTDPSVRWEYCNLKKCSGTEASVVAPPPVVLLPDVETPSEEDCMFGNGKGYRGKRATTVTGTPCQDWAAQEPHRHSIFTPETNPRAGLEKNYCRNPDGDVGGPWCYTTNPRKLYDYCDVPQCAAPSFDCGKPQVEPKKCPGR

## CCCC(=O)NC(C(=O)NC1C(=O)NC(CCCCN)C(=O)NC2CCC(O)N(C2=O)C(C(C)CC)C(=O)N(C)C(Cc2ccc(OC)c(Cl)c2)C(=O)NC(C(C)C)C(=O)OC1C)C(C)C (stereo not shown) [Kempopeptin C, kempopeptin C]
[1]
  IC50: 360 ± 90 nM
[2]; 100 µM, 6, 12 and 24 h
  Inhibition of CDCP1 cleavage in MDA-MB-231: no inhibition of CDCP1 cleavage was detected
[2]; 72 h, different concentrations
  Inhibition of CDCP1 cleavage in MDA-MB-231: No inhibition of CDCP1 cleavage was observed
[3]
  Effect on trypsin-like activity of proteasomes: did not inhibit the trypsin-like activity of proteasomes
